# Data published in patent publication US9980937B2, “Therapeutic agent for Alzheimer's disease” (NAGASAKI UNIVERSITY, priority 2014, dated 2018).
# What was measured:
# [1] = coefficient of partition for octanol, in accordance with Fudouji et al. 2009; cited from earlier work
# neprilysin [2] = assay: neprilysin-dependent neutral endopeptidase activity of APP-H4 cell extract (suc-AAF-AMC coupled enzyme assay); format: cell-based, human; conditions: APP-H4 cells, 48 hr, 1 or 10 μM; activity without polyphenol derivative = 1 (FIG. 1)
# Description: (§1) APP-H4 cells were seeded to a 6-well plate at a density of 12×10^4 cells/1.5 mL, and cultured in Dulbecco's modified Eagle's medium (DMEM; Nacalai Tesque, Inc.) added with 10% fetal bovine serum (FBS; Equitech-Bio, Inc. [Kerrville, Tex., USA]), 100 U/mL penicillin+100 μg/mL streptomycin (Nacalai Tesque, Inc.). After culture for 24 hr, the culture supernatant was removed, and the medium was exchanged with a medium with reduced use amount of serum, Opti-MEM (registered trade mark) I Reduced Serum Medium (Life Technologies Corporation, Carlsbad, Calif., USA) (1 mL). A polyphenol derivative (1 μL) to be the test target was added, and the mixture was further cultured for 48 hr. After culture, the culture supernatant was recovered in a tube (total amount 1.5 mL), centrifuged at 4,000×g/4° C./10 min to remove dead cells, and the supernatant (800 μL) was placed in a new tube. The culture supernatant was preserved at −80° C. before sample preparation. The cells were washed twice with ice-cooled phosphate-buffered saline (PBS). Thereafter, the cells were scraped from the plate using a Cell Scraper. The cells were recovered in a 1.5 mL tube and centrifuged at 4,000×g/4° C./10 min. The supernatant was removed and the cells were preserved at −80° C. before sample preparation. The frozen cells were lysed in 40 μL of solubilization buffer containing 1% Triton X-100, protease inhibitor cocktail Complete™ EDTA-free (Roche) and 50 mM Tris-HCl on ice. The cell lysate was incubated on ice for 60 min, centrifuged at 4° C., 21,900×g for 30 min, and the supernatant was recovered and used as a solubilization cell extract.
# The total protein concentration of the cell extract was determined by a BCA protein assay kit (Takara) by using BSA as the standard solution. The final concentration of the test compound used was 1 μM or 10 μM, and quantification was performed using each solvent as a control.
# The neprilysin-dependent neutral endopeptidase activity of the cell extract was measured fluorescence quantitatively by an indirect coupled enzyme assay method. […] Total 50 μL of the reaction mixture was prepared such that the final concentration was substrate 0.1 mM suc-AAF-AMC, protein in the cell extract 1-6 μg, 100 mM MES buffer (pH 6.5). With the time of addition of the substrate as the start of the reaction, the mixture was reacted at 37° C. for 1 hr, and Phe-AMC was cut out from the substrate by neutral endopeptidase. […] The mixture was reacted at 37° C. for 30 min, and Phe (phenylalanine) residue was cut out from Phe-AMC by aminopeptidase.
# [3] = tested on: neprilysin mRNA (MME gene); assay: neprilysin mRNA expression (quantitative real-time PCR, MME gene); format: cell-based, human; conditions: standardized to GAPDH mRNA (FIG. 3)
# Description: (§2) In the same manner as in the above-mentioned 2, total RNA was prepared using a High Pure RNA Isolation kit (Roche 11828665001) from the cells to be the test target cells, which were treated with each polyphenol derivative and cultured, and subjected to a reverse transcription reaction using PrimeScript RT-PCR kit (TaKaRaRR014A) to give a sample (cDNA) for real-time PCR.
# (§3) The prepared sample, Premix Ex taq (Perfect Real Time) (TaKaRaRR039A) and a probe, and a primer were mixed in a tube (TaKaRa SC910A), and real-time PCR reaction (initial denaturation: 95° C. 30 sec, PCR reaction: 95° C. 5 sec, 60° C. 20 sec, 40 times) was performed by Smart Cycler II System machine (TaKaRa).
# (§4) The 5′-terminus of the probe was modified by a fluorescent substance FAM, and the 3′-terminus was modified by a quencher substance TAMRA, respectively.
# ADAM17 = assay: α-secretase mRNA expression, ADAM17 (real-time PCR); format: cell-based, human; conditions: control = 1
# Description: as §2, §3, §4
# [4] = tested on: neprilysin, α-secretase, β-secretase; assay: overall conclusion on modulation of neprilysin, α-secretase and β-secretase (Example 1); format: cell-based, human; conditions: conclusion from the results of Example 1
# Description: as §1
# The neprilysin-dependent neutral endopeptidase activity of the cell extract was measured fluorescence quantitatively by an indirect coupled enzyme assay method. As a neutral endopeptidase substrate, succinyl-Ala-Ala-Phe-7-amino-4-methylcoumarin (suc-AAF-AMC) (1-1315; Bachem) was used. Total 50 μL of the reaction mixture was prepared such that the final concentration was substrate 0.1 mM suc-AAF-AMC, protein in the cell extract 1-6 μg, 100 mM MES buffer (pH 6.5). With the time of addition of the substrate as the start of the reaction, the mixture was reacted at 37° C. for 1 hr, and Phe-AMC was cut out from the substrate by neutral endopeptidase. Then, to the reaction mixture was added a solution (2.5 μL) containing 0.1 mg (0.4 unit equivalent)/mL leucine aminopeptidase (L-5006; Sigma-Aldrich), and 0.2 mM phosphoramidon (4082; Peptide Institute). The mixture was reacted at 37° C. for 30 min, and Phe (phenylalanine) residue was cut out from Phe-AMC by aminopeptidase. Using microplate spectrometer Infinite M-1000 (Tecan), the fluorescence intensity of free AMC was measured by measuring at an excitation wavelength 390 nm and a fluorescence wavelength 460 nm on a half-well size 96-well black plate (#3695; Corning). The neprilysin-dependent neutral endopeptidase activity was determined based on a decrease in the activity due to 10 μM thiorphan (T-6031; Sigma-Aldrich) as a neprilysin specific inhibitor.
# After thawing from −80° C., the aforementioned culture supernatant was mixed with 6×SDS-polyacrylamide gel electrophoresis (SDS-PAGE) sample buffer (Nacalai Tesque, Inc.) at a ratio of 5:1, boiled for 5 min, and used as a detection sample of APPsα which is a metabolite of APP by α-secretase and APPsβ which is a metabolite of APP by β-secretase in western blot analysis. […]
# neprilysin [5] = assay: neprilysin expression amount at protein level (western blot, APP-H4 cells); format: cell-based, human; conditions: 48 hr, standardized to β-actin (FIG. 2)
# Description: as §1
# The aforementioned cell extract was mixed with 6×SDS-polyacrylamide gel electrophoresis (SDS-PAGE) sample buffer (Nacalai Tesque, Inc.) at a ratio of 5:1, boiled for 5 min, and used as a detection sample of neprilysin, α-secretase and β-secretase proteins.
# The PVDF membrane after transfer was washed with a wash buffer and immersed in a blocking buffer to prevent non-specific binding of the primary antibody, and a blocking reaction was performed at room temperature for 1 hr. […] The PVDF membrane after the reaction was washed with the wash buffer and the secondary antibody (horseradish peroxidase conjugated anti-mouse or anti-rabbit IgG (1:10,000; GE Healthcare UK Ltd.)) corresponding to the primary antibody was reacted at room temperature for 1 hr and detection was carried out using the ECL Select Western Blotting Detection Kit (GE Healthcare UK Ltd.).
# The signal intensity of the band was quantified using a densitometer LAS-4000 (GE Healthcare UK Ltd.) and image analysis software Science Laboratory 2003 Image Gauge Version 4.23 (Fujifilm Holdings Corporation, Tokyo, Japan).
# β-secretase = biological target: T1, β-secretase (Homo sapiens, UniProt P56817); assay: β-secretase activity (APPsβ, western blot); format: cell-based; conditions: APP-H4 culture supernatant, APPsβ (FIG. 2)
# T1 construct: endogenous in cells; host or cells: APP-H4 cells (culture supernatant analysed)
# Description: as §1, with “extract. […]” for “extract.”
# (§5) The signal intensity of the band was quantified using a densitometer LAS-4000 (GE Healthcare UK Ltd.) and image analysis software Science Laboratory 2003 Image Gauge Version 4.23 (Fujifilm Holdings Corporation, Tokyo, Japan). […]
# APP = assay: extracellularly secreted APPsα/APPsβ ratio (western blot); format: cell-based, human; conditions: APP-H4 culture supernatant (FIG. 2)
# Description: as §1
# After thawing from −80° C., the aforementioned culture supernatant was mixed with 6×SDS-polyacrylamide gel electrophoresis (SDS-PAGE) sample buffer (Nacalai Tesque, Inc.) at a ratio of 5:1, boiled for 5 min, and used as a detection sample of APPsα which is a metabolite of APP by α-secretase and APPsβ which is a metabolite of APP by β-secretase in western blot analysis.
# The PVDF membrane after transfer was washed with a wash buffer and immersed in a blocking buffer to prevent non-specific binding of the primary antibody, and a blocking reaction was performed at room temperature for 1 hr. Thereafter, it was reacted with a primary antibody (APPsα, anti-human APPsα mouse monoclonal antibody (2B3, Immuno-Biological Laboratories Co., Ltd., Gunma, Japan) (3 μg/mL); APPsβ, anti-APPsβ, rabbit polyclonal antibody, 1 μg/mL) to perform an antigen-antibody-reaction at 4° C. for not less than 16 hr. […]
# as §5
# T1 sequence (P56817 46-501): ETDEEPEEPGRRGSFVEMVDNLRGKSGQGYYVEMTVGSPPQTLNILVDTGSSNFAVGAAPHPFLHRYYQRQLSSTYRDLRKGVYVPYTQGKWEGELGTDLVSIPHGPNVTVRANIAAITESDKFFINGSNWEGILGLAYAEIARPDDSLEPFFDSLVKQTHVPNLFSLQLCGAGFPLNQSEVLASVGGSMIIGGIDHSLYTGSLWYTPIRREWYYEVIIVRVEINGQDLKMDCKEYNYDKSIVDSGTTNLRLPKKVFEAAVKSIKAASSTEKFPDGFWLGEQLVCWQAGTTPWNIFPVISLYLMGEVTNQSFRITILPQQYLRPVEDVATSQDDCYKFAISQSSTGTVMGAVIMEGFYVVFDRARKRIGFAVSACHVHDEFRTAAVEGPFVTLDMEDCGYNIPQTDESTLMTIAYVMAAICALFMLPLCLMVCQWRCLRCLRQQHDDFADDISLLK
compound,measurement,setting,value
CC12CC[C@@H](C(C)(C)O)[C@H](C1)c1c(cc(O)c3c1O[C@H](c1cc(O)c(O)c(O)c1)[C@H](OC(=O)c1cc(O)c(O)c(O)c1)C3)O2 [NUP-6],log P octanol,[1],1.85
"O=C(O[C@@H]1Cc2c(O)cc(O)cc2O[C@@H]1c1cc(O)c(O)c(O)c1)c1cc(O)c(O)c(O)c1 [EGCg, (−)-epigallocatechin-3-O-gallate, reference compound]",neprilysin activity potentiating action,neprilysin [2],about 1.5 times that of control
same,log P octanol,[1],1.00
Amentoflavone,neprilysin activity potentiating action,neprilysin [2],about 2 times that of control
O=c1cc(-c2ccccc2)oc2cc(O)cc(O)c12 [Chrysin],neprilysin activity potentiating action,neprilysin [2],about 1.4 times that of control
O=C(O)CCCCCCCCCCCCCCOC1CCc2c(c3c(c4c2O[C@H](c2cc(O)c(O)c(O)c2)[C@H](OC(=O)c2cc(O)c(O)c(O)c2)C4)OC(OCCCCCCCCCCCCCCC(=O)O)CC3)O1 (some centres unmarked) [NUP-E15-2],neprilysin activity potentiating action,neprilysin [2],about 1.5 times that of control
same,expression level of neprilysin at the mRNA level,[3],about 7.9 times that of control
same,ADAM17 expression at the mRNA level,ADAM17,about 3.7 times that of control
same,modulator class (neprilysin / α-secretase / β-secretase),[4],triple modulator
C=CCc1ccc(O)c(-c2ccc(O)c(CC=C)c2)c1 [Honokiol],neprilysin activity potentiating action,neprilysin [2],about 1.3 times that of control
O=c1cc(-c2ccc(O)cc2)oc2cc(O)cc(O)c12 [Apigenin],neprilysin activity potentiating action,neprilysin [2],about 1.5 times that of control
C/C(=C\Cc1c(O)cc2c(c1O)C[C@@H](OC(=O)c1cc(O)c(O)c(O)c1)[C@@H](c1cc(O)c(O)c(O)c1)O2)CCCC(C)CCCC(C)CCCC(C)C (some centres unmarked) [NUP-19],neprilysin activity potentiating action,neprilysin [2],about 2.7 times that of control
same,expression amount of neprilysin at the protein level,neprilysin [5],about 3.2 times that of control
same,expression level of neprilysin at the mRNA level,[3],about 2.1 times that of control
same,"β-secretase activity, remaining relative to control",β-secretase,about 37 % that of control
same,extracellularly secreted APPsα/APPsβ ratio,APP,about 1.4 times that of control
same,ADAM17 expression at the mRNA level,ADAM17,about 1.3 times that of control
same,modulator class (neprilysin / α-secretase / β-secretase),[4],double modulator
same,log P octanol,[1],>10
O=c1cc(-c2ccccc2)oc2cc(O)c(O)c(O)c12 [Baicalein],neprilysin activity potentiating action,neprilysin [2],about 1.7 times that of control
CC1CCC2C(C1)c1c(c3c(c4c1OC(C)(C)C1CCC(C)CC41)O[C@H](c1cc(O)c(O)c(O)c1)[C@H](OC(=O)c1cc(O)c(O)c(O)c1)C3)OC2(C)C (some centres unmarked) [NUP-11],neprilysin activity potentiating action,neprilysin [2],about 3.5 times that of control
same,expression amount of neprilysin at the protein level,neprilysin [5],about 3.3 times that of control
same,expression level of neprilysin at the mRNA level,[3],about 4 times that of control
same,"β-secretase activity, remaining relative to control",β-secretase,about 41 % that of control
same,extracellularly secreted APPsα/APPsβ ratio,APP,about 2.0 times that of control
same,ADAM17 expression at the mRNA level,ADAM17,about 2.4 times that of control
same,modulator class (neprilysin / α-secretase / β-secretase),[4],double modulator
same,log P octanol,[1],>10
O=c1c(O)c(-c2ccc(O)cc2)oc2cc(O)cc(O)c12 [Kaempferol],neprilysin activity potentiating action,neprilysin [2],about 1.5 times that of control
